Data from ChEMBL document CHEMBL4627303, “Design, synthesis and evaluation of flurbiprofen-clioquinol hybrids as multitarget-directed ligands against Alzheimer's disease” (Bioorg Med Chem, 2020).
The source made the active and inactive calls. The rule behind the calls is not given here.

Columns and labels:
[1] = Antioxidant activity assessed as AAPH-induced radical scavenging activity by measuring trolox equivalents for oxygen radical absorbance capacity measured every minute for 90 mins by ORAC-FL assay; assay type: functional
[2] = molecular target: T1, Amine oxidase [flavin-containing] A (Homo sapiens, UniProt P21397); assay: Inhibition of recombinant human MAOA expressed in baculovirus infected in BTI cells at 10 uM using kynuramine as substrate after 30 mins by fluorescence based assay relative to control; details: 0.5 h
T1 sequence (P21397 whole entry): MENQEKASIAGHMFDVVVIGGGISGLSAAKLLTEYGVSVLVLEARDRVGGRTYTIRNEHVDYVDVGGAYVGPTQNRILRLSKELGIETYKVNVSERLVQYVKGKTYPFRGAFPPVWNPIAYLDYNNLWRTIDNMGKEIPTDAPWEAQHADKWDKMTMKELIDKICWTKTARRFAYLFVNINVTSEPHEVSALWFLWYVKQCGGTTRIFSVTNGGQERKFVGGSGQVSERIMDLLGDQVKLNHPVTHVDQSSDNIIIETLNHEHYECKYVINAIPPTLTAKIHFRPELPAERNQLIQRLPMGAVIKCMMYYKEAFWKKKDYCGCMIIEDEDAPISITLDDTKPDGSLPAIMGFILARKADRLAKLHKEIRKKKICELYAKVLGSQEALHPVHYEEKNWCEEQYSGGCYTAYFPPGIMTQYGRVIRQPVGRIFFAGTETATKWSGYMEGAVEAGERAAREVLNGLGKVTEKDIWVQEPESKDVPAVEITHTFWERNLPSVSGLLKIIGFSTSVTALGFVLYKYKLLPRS

[3] = molecular target: T2, Amine oxidase [flavin-containing] B (Homo sapiens, UniProt P27338); assay: Inhibition of recombinant human MAOB expressed in baculovirus infected in BTI cells at 10 uM using kynuramine as substrate after 30 mins by fluorescence based assay relative to control; details: 0.5 h
T2 sequence (P27338 whole entry): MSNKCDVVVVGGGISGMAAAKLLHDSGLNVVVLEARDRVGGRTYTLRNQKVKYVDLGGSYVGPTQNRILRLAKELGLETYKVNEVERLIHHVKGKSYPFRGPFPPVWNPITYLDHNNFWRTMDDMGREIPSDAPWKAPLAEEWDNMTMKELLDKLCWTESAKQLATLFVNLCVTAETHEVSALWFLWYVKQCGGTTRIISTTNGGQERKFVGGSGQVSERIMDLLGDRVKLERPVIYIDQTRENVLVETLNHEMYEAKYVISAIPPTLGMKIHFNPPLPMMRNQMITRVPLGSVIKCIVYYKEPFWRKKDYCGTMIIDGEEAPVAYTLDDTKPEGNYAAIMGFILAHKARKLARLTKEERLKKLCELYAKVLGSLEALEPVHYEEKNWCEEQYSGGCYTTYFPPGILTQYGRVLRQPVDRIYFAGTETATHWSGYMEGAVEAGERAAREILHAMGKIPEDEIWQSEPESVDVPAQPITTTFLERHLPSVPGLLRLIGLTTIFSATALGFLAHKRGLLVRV

[4] = molecular target: T2, Amine oxidase [flavin-containing] B; assay: Inhibition of recombinant human MAOB expressed in baculovirus infected in BTI cells using kynuramine as substrate after 30 mins by fluorescence based assay; assay type: cell-based
[5] = molecular target: Amyloid-beta precursor protein (Homo sapiens) (UniProt P05067); assay: Inhibition of HFIP-pretreated amyloid beta (1 to 42) (unknown origin) self-aggregation at 25 uM after 24 hrs by thioflavin-T fluorescence assay relative to control
Sequence of Amyloid-beta precursor protein (Homo sapiens) (P05067 whole entry): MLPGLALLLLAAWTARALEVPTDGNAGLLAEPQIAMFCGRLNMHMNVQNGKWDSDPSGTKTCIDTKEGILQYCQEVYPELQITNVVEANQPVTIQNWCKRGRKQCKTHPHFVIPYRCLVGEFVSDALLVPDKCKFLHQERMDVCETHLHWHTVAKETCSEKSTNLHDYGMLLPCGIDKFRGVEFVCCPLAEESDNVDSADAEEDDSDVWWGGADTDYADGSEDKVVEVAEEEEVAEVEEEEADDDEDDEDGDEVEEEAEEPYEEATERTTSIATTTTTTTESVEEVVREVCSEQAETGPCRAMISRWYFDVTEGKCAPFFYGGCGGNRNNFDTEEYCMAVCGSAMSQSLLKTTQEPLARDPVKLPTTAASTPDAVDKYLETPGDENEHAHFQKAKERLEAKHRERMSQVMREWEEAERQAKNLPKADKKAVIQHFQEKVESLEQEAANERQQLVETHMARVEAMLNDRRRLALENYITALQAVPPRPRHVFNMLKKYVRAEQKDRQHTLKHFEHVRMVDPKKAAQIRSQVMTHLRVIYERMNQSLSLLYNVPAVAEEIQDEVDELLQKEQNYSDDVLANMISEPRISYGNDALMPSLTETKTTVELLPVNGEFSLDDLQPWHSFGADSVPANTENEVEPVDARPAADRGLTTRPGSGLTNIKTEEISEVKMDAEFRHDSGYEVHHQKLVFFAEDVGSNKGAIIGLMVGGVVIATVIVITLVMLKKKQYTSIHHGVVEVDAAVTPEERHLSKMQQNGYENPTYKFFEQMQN

[6] = molecular target: Amyloid-beta precursor protein (Homo sapiens) (UniProt P05067); assay: Inhibition of Cu2+-induced HFIP-pretreated amyloid beta (1 to 42) (unknown origin) aggregation at 25 uM measured after 24 hrs by thioflavin-T fluorescence assay relative to control
[7] = molecular target: Amyloid-beta precursor protein (Homo sapiens) (UniProt P05067); assay: Disaggregation of self-induced amyloid beta (1 to 42) (unknown origin) preformed fibrils at 25 uM measured after 24 hrs by thioflavin-T fluorescence assay relative to control
[8] = tested on: PC-12; assay: Neuroprotective activity against H2O2-induced cytotoxicity in rat PC12 cells assessed as cell viability at 1 uM preincubated for 2 hrs followed by H2O2 addition and measured after 24 hrs by MTT assay (reference value: 48.3%); assay type: functional; details: read-out: Activity
[9] = tested on: PC-12; assay: Neuroprotective activity against H2O2-induced cytotoxicity in rat PC12 cells assessed as cell viability at 10 uM preincubated for 2 hrs followed by H2O2 addition and measured after 24 hrs by MTT assay (reference value: 48.3%); assay type: functional; details: read-out: Activity
[10] = tested on: BV-2; assay: Cytotoxicity against mouse BV2 cells assessed as reduction in cell viability at 0.5 to 10 uM measured after 30 mins by MTT assay; assay type: cell-based; details: bv-2, 0.5 h
[11] = tested on: BV-2; assay: Cytotoxicity against LPS-induced mouse BV2 cells assessed as reduction in cell viability at 0.5 to 10 uM preincubated for 30 mins followed by LPS stimulation and measured after 24 hrs by MTT assay; assay type: cell-based; details: bv-2, 24 h
[12] = tested on: BV-2; assay: Anti-neuroinflammatory activity in mouse BV2 cells assessed as inhibition of LPS-induced NO production at 0.5 uM preincubated for 30 mins followed by LPS stimulation measured after 24 hrs by Griess reagent based assay relative to control; assay type: functional
[13] = tested on: BV-2; assay: Anti-neuroinflammatory activity in mouse BV2 cells assessed as inhibition of LPS-induced NO production at 2.5 uM preincubated for 30 mins followed by LPS stimulation measured after 24 hrs by Griess reagent based assay relative to control; assay type: functional
[14] = tested on: BV-2; assay: Anti-neuroinflammatory activity in mouse BV2 cells assessed as inhibition of LPS-induced NO production at 10 uM preincubated for 30 mins followed by LPS stimulation measured after 24 hrs by Griess reagent based assay relative to control; assay type: functional
[15] = tested on: BV-2; assay: Effect on nitric oxide production in mouse BV2 cells at 0.5 to 10 uM measured after 30 mins by Griess reagent based […]; assay type: ADME, cell-based; details: bv-2, 0.5 h
[16] = tested on: BV-2; assay: Anti-neuroinflammatory activity in mouse BV2 cells assessed as inhibition of LPS-induced TNFalpha production at 0.5 uM preincubated for 30 mins followed by LPS stimulation measured after 24 hrs by ELISA relative to control; assay type: functional
[17] = tested on: BV-2; assay: Anti-neuroinflammatory activity in mouse BV2 cells assessed as inhibition of LPS-induced TNFalpha production at 2.5 uM preincubated for 30 mins followed by LPS stimulation measured after 24 hrs by ELISA relative to control; assay type: functional
[18] = tested on: BV-2; assay: Anti-neuroinflammatory activity in mouse BV2 cells assessed as inhibition of LPS-induced TNFalpha production at 10 uM preincubated for 30 mins followed by LPS stimulation measured after 24 hrs by ELISA relative to control; assay type: functional
[19] = tested on: BV-2; assay: Effect on TNFalpha production in mouse BV2 cells at 10 uM measured after 30 mins by ELISA; assay type: ADME, cell-based; details: bv-2, 0.5 h
[20] = Effective permeability of the compound in PBS/EtOH buffer (7:3) at 100 ug/ml after 18 hrs by PAMPA-BBB assay; assay type: ADME; details: read-out: Peff
[21] = Metal chelating activity assessed as Cu2+-compound complex formation at 37.5 uM measured after 2 hrs in presence of 37.5 uM CuCl2 by UV-Vis spectrophotometric analysis
[22] = Metal chelating activity assessed as Al3+-compound complex formation at 37.5 uM measured after 2 hrs in presence of 37.5 uM AlCl3 by UV-vis spectrophotometric analysis
[23] = Metal chelating activity assessed as Zn2+-compound complex formation at 37.5 uM measured after 2 hrs in presence of 37.5 uM ZnCl2 by UV-vis spectrophotometric analysis
[24] = Metal chelating activity assessed as Fe2+-compound complex formation at 37.5 uM measured after 2 hrs in presence of 37.5 uM FeSO4 by UV-vis spectrophotometric analysis
[25] = Metal chelating activity assessed as compound-Cu2+ complex stoichiometry ratio of 1:1 at 37.5 uM in presence of CuCl2 after 15 mins by UV-visible spectrophotometric analysis
[26] = tested on: PC-12; assay: Neuroprotective activity against H2O2-induced cytotoxicity in rat PC12 cells assessed as increase in cell viability preincubated for 2 hrs followed by H2O2 addition and measured after 24 hrs by MTT assay; assay type: functional, cell-based
[27] = tested on: BV-2; assay: Anti-neuroinflammatory activity in mouse BV2 cells assessed as inhibition of LPS-induced NO production preincubated for 30 mins followed by LPS stimulation measured after 24 hrs by Griess reagent based assay; assay type: functional, cell-based
[28] = tested on: BV-2; assay: Anti-neuroinflammatory activity in mouse BV2 cells assessed as inhibition of LPS-induced TNFalpha production preincubated for 30 mins followed by LPS stimulation measured after 24 hrs by ELISA; assay type: functional, cell-based

Row | SMILES | Activity [1] | inhibition at 10 µM [2] | inhibition at 10 µM [3] | inhibition [5] | inhibition [6] | Activity [7] | viability at 1 µM [8] | viability at 10 µM [9] | Activity [10] | Activity [11] | inhibition at 0.5 µM [12] | inhibition at 2.5 µM [13] | inhibition at 10 µM [14] | Activity [15] | inhibition at 0.5 µM [16] | inhibition at 2.5 µM [17] | inhibition at 10 µM [18] | Activity [19] | Papp at 18 h, 100 ug/ml [20] | Activity [21] | further results
1 | COC(=O)C(C)c1ccc(-c2ccc(NCc3cc(N(C)C)ccc3O)cc2)c(F)c1 (stereo not given) | 2.44 µMequiv/µM | 26.3% | 52.4% | 96.3% | 84.3% | 91.1% | 70.2% | 81.6% | Non-Toxic | Non-Toxic | 32.4% | 46.7% | 57.2% | Non-Toxic | 35.8% | 53.1% | 76.5% | Non-Toxic | 5.48 ×10⁻⁶ cm/s | Active | IC50 [4]: 10.3 µM; Activity [22]: Active; Activity [23]: inactive; Activity [24]: inactive; Activity [25]: Active; Activity [26]: Dose-dependent effect; inhibition [27]: Dose-dependent effect; inhibition [28]: Dose-dependent effect
2 | COC(=O)C(C)c1ccc(-c2ccccc2NCc2cc(N(C)C)ccc2O)c(F)c1 (stereo not given) | 1.91 µMequiv/µM | 35.4% | 34.6% | 96.1% | 87.3% | 91.1% | 68.6% | 80% | Non-Toxic | Non-Toxic | 26.9% | 43.4% | 52.4% | Non-Toxic | 35% | 49.1% | 68.1% | Non-Toxic | 4.09 ×10⁻⁶ cm/s | Active | Activity [22]: Active; Activity [23]: inactive; Activity [24]: inactive; Activity [25]: Active; Activity [26]: Dose-dependent effect; inhibition [27]: Dose-dependent effect; inhibition [28]: Dose-dependent effect
